The results in this text go back to PubChem BioAssay (NCI).

Test systems include A498 renal; HT29 colon; K-562 leukemia; LOX IMVI melanoma; NCI-H226 lung; NCI-H460 lung; NCI-H522 lung; SF-539 CNS; SK-MEL-5 melanoma; SNB-19 CNS.
Test in all cases: NCI anticancer screen, dose series, 48 h

Several values for one entry are separate records, joined by “and”; a condition that tells them apart may be missing. Equal entries are not always repeated.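 Step 1: Grow cells in 96-well plates. Step 2: Expose to compound for 48 hours at 5 concentrations. Step 3: Interpolate endpoints linearly; if unreached, use highest concentration. GI50: concentration for 50% inhibition of growth. Definition used: TGI = concentration required for complete inhibition of growth.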 Where only a bound is given, the exact number is not on record here.

For the compound `CN(C)CCOC1(Cc2ccc(F)cc2)CCC(C(C)(C)C)CC1` (stereo unspecified), the TGI in the test on A498 renal was 26 µM and 29.3 µM; in the test on HT29 colon it was 9.5 µM and 8.3 µM; in the test on K-562 leukemia, 5.05 µM and 7.04 µM; in the test with LOX IMVI melanoma it was 7.05 µM and 10.5 µM; with NCI-H226 lung, 27.5 µM and 26.8 µM; in the test with NCI-H460 lung it was 11.1 µM and 7.09 µM. Besides, the TGI is 14.2 µM and 23.5 µM with NCI-H522 lung; 19.1 µM and 27.1 µM with SF-539 CNS; 3.42 µM and 5.03 µM with SK-MEL-5 melanoma; 24.6 µM and 19.4 µM in the test with SNB-19 CNS. Besides, the GI50 with SF-539 CNS is 5.73 µM and 13.4 µM.

For the compound `COc1ccc2cc(C(C)C(=O)N3CCOC3=O)ccc2c1` (stereo unspecified), the TGI with A498 renal, in the test on HT29 colon, with K-562 leukemia, with LOX IMVI melanoma, in the test on NCI-H226 lung and with NCI-H460 lung was over 100 µM in each case. In addition, the TGI with NCI-H522 lung, in the test with SF-539 CNS, in the test on SK-MEL-5 melanoma and with SNB-19 CNS was over 100 µM in each case.

With `C=C1CN2CC(=C)CN(C1)CS(=O)(=O)N1CC(=C)CN(CC(=C)C1)S(=O)(=O)N1CC(=C)CN(CC(=C)C1)S(=O)(=O)C2`, the TGI with A498 renal was over 100 µM; in the test on HT29 colon it was over 100 µM; with K-562 leukemia it was over 100 µM; in the test on LOX IMVI melanoma it was over 100 µM; in the test with NCI-H226 lung, 71.5 µM; with NCI-H460 lung, over 100 µM. Also, the TGI was over 100 µM in the test with NCI-H522 lung, 39.9 µM with SF-539 CNS, 48 µM in the test on SK-MEL-5 melanoma and over 100 µM with SNB-19 CNS.

Consider `Nc1ccc(S(=O)(=O)Nc2nccs2)cc1`, for which the TGI with A498 renal, in the test on HT29 colon, in the test on K-562 leukemia, in the test with LOX IMVI melanoma, in the test with NCI-H226 lung and with NCI-H460 lung was over 100 µM in each case. Moreover, the TGI with NCI-H522 lung, in the test with SF-539 CNS, with SK-MEL-5 melanoma and in the test on SNB-19 CNS was over 100 µM each time.

In the case of `CC(C)(C)OC(=O)NCCCNC1(c2cc3ccccc3s2)CCCCC1`, the TGI in the test on A498 renal was 29.8 µM; in the test with HT29 colon it was 13.4 µM; with K-562 leukemia, 26.3 µM; with LOX IMVI melanoma it was 35.2 µM; in the test on NCI-H226 lung it was 46.1 µM; in the test with NCI-H460 lung it was 30.5 µM. For the same compound, the TGI worked out at 32 µM in the test with NCI-H522 lung, 34.2 µM in the test with SF-539 CNS, 27.3 µM in the test with SK-MEL-5 melanoma and 27.2 µM in the test with SNB-19 CNS.

Turning to `C=CCOc1ccc(C2(O)c3ccccc3C3=NCCCN32)cc1` (stereo unspecified), the TGI with A498 renal is over 100 µM; in the test with HT29 colon it was over 100 µM; with K-562 leukemia it was over 87.2 µM; with LOX IMVI melanoma, over 100 µM; in the test on NCI-H226 lung, over 100 µM; in the test on NCI-H460 lung, over 100 µM. Besides, the TGI is over 100 µM with NCI-H522 lung, over 100 µM with SF-539 CNS, 45.7 µM with SK-MEL-5 melanoma and over 100 µM in the test on SNB-19 CNS.

With `CC(=O)O[C@H]1CC[C@@]2(C)C(=CC[C@H]3[C@@H]4C[C@H](N5CCOCC5)[C@H](OC(C)=O)[C@@]4(C)CC[C@@H]32)C1`, the TGI with A498 renal, in the test on HT29 colon, with K-562 leukemia, with LOX IMVI melanoma, in the test with NCI-H226 lung and in the test with NCI-H460 lung was over 100 µM throughout. In addition, the TGI in the test with NCI-H522 lung, with SF-539 CNS, with SK-MEL-5 melanoma and with SNB-19 CNS was over 100 µM in each case.

On to `Oc1cccc(-c2nc3cc(F)ccc3s2)c1`, for which the TGI with A498 renal was 27.6 µM; with HT29 colon, 31.7 µM; with K-562 leukemia, over 100 µM; in the test on LOX IMVI melanoma, 34.7 µM; with NCI-H226 lung, 44 µM; with NCI-H460 lung, 55.4 µM. The TGI with NCI-H522 lung was 25.7 µM; in the test on SF-539 CNS it was 55.8 µM; in the test with SK-MEL-5 melanoma it was 25 µM; in the test on SNB-19 CNS, 99 µM.

Take `CCOC(=O)NC(Nc1cccc(C(F)(F)F)c1)(C(F)(F)F)C(F)(F)F`: the TGI in the test on A498 renal, in the test on HT29 colon, with K-562 leukemia, with LOX IMVI melanoma, in the test with NCI-H226 lung and in the test on NCI-H460 lung was over 100 µM in each case. Moreover, the TGI in the test on NCI-H522 lung, with SF-539 CNS, in the test with SK-MEL-5 melanoma and in the test with SNB-19 CNS was over 100 µM throughout.

Take `O=[N+]([O-])/C(C(Cl)=C(Cl)Cl)=C(\N1CCCCC1)n1cncn1`: the TGI in the test on A498 renal was 31.4 µM; in the test on HT29 colon, 37.5 µM; with K-562 leukemia, over 100 µM; in the test on LOX IMVI melanoma, 42.1 µM; in the test on NCI-H226 lung, 40.3 µM; with NCI-H460 lung it was 72.1 µM. The TGI in the test with NCI-H522 lung came out at 31.6 µM; in the test on SF-539 CNS, 31.4 µM; in the test with SK-MEL-5 melanoma it was 25.3 µM; in the test with SNB-19 CNS, 33.6 µM.

For `COc1ccc2c(c1)CCN1CCc3ccccc3CC21` (stereo unspecified), the TGI with A498 renal was over 100 µM; with HT29 colon, over 100 µM; with K-562 leukemia, over 100 µM; with LOX IMVI melanoma it was 58.1 µM; with NCI-H226 lung, 83.5 µM; with NCI-H460 lung it was over 100 µM. Also, the TGI was over 100 µM in the test on NCI-H522 lung, over 100 µM with SF-539 CNS, 30.2 µM with SK-MEL-5 melanoma and over 100 µM in the test on SNB-19 CNS.

Regarding `CC(C)=CCNc1ncnc2c1ncn2CCC#N`, the TGI in the test with A498 renal, in the test with HT29 colon, in the test on K-562 leukemia, in the test with LOX IMVI melanoma, in the test with NCI-H226 lung and with NCI-H460 lung was over 100 µM each time. Besides, the TGI in the test on NCI-H522 lung, in the test on SF-539 CNS, in the test with SK-MEL-5 melanoma and with SNB-19 CNS was over 100 µM each time.

As to `O=C1C(=Cc2ccccc2O)N=C(c2ccccc2)N1n1c(-c2ccccc2)nc2ccccc2c1=O`, the TGI is 64.1 µM with A498 renal; over 100 µM with HT29 colon; 78.2 µM in the test on K-562 leukemia; over 100 µM in the test on LOX IMVI melanoma; 79 µM in the test with NCI-H226 lung; over 100 µM in the test with NCI-H460 lung. The TGI in the test with NCI-H522 lung is 67.1 µM; in the test on SF-539 CNS, 50 µM; with SK-MEL-5 melanoma, 41.7 µM; in the test on SNB-19 CNS, over 100 µM.
